Test results as given in patent US20030187037A1, “Acetamide derivatives and the use thereof as inhibitors of coagulation factors xa and viia” (priority 2000, published 2003).

How the values were obtained:
TF/VIIa = TF/VIIa (Homo sapiens, UniProt P08709); assay: Inhibition of TF/VIIa (IC50, headed 'Affinity to Receptors'); assay type: biochemical
Text: The inhibition of factor VIIa by the compounds according to the invention and the measurement of the anticoagulant and antithrombotic activity can be determined by conventional in-vitro or in-vivo methods. A conventional method for the measurement of the inhibition of factor VIIa is described, for example, by H. F. Ronning et al. in Thrombosis Research 1996, 84, 73-81.

factor Xa, human = factor Xa, human (Homo sapiens, UniProt P00742); assay: Inhibition of factor Xa (IC50, headed 'Affinity to Receptors'); assay type: biochemical
Text: The inhibition of factor Xa by the compounds according to the invention and the measurement of the anticoagulant and antithrombotic activity can be determined by conventional in-vitro or in-vivo methods. A suitable method is described, for example, by J. Hauptmann et al. in Thrombosis and Haemostasis 1990, 63, 220-223.
The inhibition of factor Xa can be measured, for example, by the method of T. Hara et al. in Thromb. Haemostas. 1994, 71, 314-319.

Sequence of TF/VIIa (P08709 213-466 limits assumed): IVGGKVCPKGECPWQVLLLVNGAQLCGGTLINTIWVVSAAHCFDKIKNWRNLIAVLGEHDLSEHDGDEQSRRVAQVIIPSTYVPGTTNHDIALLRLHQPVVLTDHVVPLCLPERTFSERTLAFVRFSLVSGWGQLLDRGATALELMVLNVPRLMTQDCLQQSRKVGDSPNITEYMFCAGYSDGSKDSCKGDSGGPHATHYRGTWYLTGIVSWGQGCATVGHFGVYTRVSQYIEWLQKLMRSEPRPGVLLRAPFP
Sequence of TF/VIIa (P08709 61-212 partner limits assumed): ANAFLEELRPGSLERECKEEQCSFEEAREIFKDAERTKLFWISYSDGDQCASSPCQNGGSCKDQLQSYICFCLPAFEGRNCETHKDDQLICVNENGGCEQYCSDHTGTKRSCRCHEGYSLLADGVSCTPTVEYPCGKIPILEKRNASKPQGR
Sequence of TF/VIIa (P13726 33-295 partner): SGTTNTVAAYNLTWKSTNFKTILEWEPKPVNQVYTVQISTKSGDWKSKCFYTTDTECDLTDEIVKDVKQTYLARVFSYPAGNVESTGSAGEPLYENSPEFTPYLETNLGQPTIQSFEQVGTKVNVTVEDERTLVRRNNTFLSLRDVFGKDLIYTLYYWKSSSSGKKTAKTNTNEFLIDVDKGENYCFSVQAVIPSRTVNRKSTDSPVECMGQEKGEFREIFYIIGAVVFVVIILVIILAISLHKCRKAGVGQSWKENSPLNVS
Sequence of factor Xa, human (P00742 235-488 limits assumed): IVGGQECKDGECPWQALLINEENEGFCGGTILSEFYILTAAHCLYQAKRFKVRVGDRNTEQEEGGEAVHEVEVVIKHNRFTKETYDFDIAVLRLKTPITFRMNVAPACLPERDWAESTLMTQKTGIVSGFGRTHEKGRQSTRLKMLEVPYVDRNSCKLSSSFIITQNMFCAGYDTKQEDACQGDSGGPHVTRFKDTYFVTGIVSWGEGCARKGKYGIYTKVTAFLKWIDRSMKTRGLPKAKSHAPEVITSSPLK
Sequence of factor Xa, human (P00742 41-179 partner limits assumed): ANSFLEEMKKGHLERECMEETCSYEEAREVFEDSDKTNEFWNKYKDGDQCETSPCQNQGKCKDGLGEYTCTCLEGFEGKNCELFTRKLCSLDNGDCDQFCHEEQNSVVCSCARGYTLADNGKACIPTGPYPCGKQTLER

| IC50 (TF/VIIa) [nM] | IC50 (factor Xa, human) [nM] | SMILES |
| --- | --- | --- |
| 900 | 2000 | CCCN(Cc1cccc(C(=N)N)c1)C(=O)Cc1ccc(-c2ccccc2S(N)(=O)=O)cc1 [Example 3.3, N-3-amidinobenzyl-N-propyl-2-(2′-sulfamoylbiphenyl-4-yl)acetamide] |
| 700 | 1000 | CCCN(Cc1cccc(C(=N)N)c1)C(=O)Cc1ccc(-c2ccccc2S(C)(=O)=O)cc1 [Example 4.3, N-(3-amidinobenzyl)-N-propyl-2-(2′-methylsulfonylbiphenyl-4-yl)acetamide] |
| 650 | 550 | CS(=O)(=O)c1ccccc1-c1ccc(CC(=O)N(Cc2cccc(C(=N)N)c2)c2ccccc2)cc1 [N-(3-amidinobenzyl)-N-phenyl-2-(2′-methylsulfonylbiphenyl-4-yl)acetamide] |
| 1500 | 2000 | N=C(N)c1cccc(CN(C(=O)Cc2ccc(-c3ccccc3S(N)(=O)=O)cc2)c2ccccc2)c1 [N-(3-amidinobenzyl)-N-phenyl-2-(2′-sulfamoylbiphenyl-4-yl)acetamide] |
